Results as given in PubChem BioAssay AID1963979 (Molecular Pharmacology Branch, DTP, NCI, 2024).
Values belong to the compound of their own block, whether it stands above or below them.

Test system: 361931-004-R-J1-PDC multicell spheroid viability
Assay: Anticancer human tumor 361931-004-R-J1-PDC patient-derived colon adenocarcinoma cell line growth inhibition [PI3K]
Conditions: for IC50: curve of first compound; for viability, T/C: stronger effect = lower value
Source text: Combinatorial screen of targeted agents with the PI3K inhibitors inavolisib, alpelisib, duvelisib, and copanlisib in multi-cell type tumor spheroids
A high-throughput screen of multi-cell type tumor spheroids was designed to identify active combinations of targeted small molecules and PI3K pathway inhibitors. Complex spheroids include a stromal component modeled by human endothelial cells (HUVEC) and fibroblasts modeled by human mesenchymal stem cells (MSCs). The concentration ranges selected for each drug and investigational agent were based upon clinically achievable concentrations if the clinical Cmax of the agent was known.
Compounds. The drugs and investigational agents: inavolisib (NSC800729), alpelisib (NSC765974), duvelisib (NSC772469), copanlisib (NSC816437), ipatasertib (NSC767898), afuresertib (NSC778305), talazoparib (NSC767125), sapanisertib (NSC764658), selumetinib (NSC741078), tovorafenib (DAY101, NSC766906), vemurafenib (NSC761431), ravoxertinib (NSC781343), sotorasib (NSC818433), MRTX1133 (NSC 836407), abemaciclib (NSC 768073), palbociclib (NSC758247), venetoclax (NSC 766270), SY5609 (NSC837396), enzalutamide (NSC755605), and darolutamide (NSC825331), were obtained from the National Cancer Institute (NCI) Developmental Therapeutics Program Chemical Repository. The FDA-approved anticancer drug set is available from the NCI Developmental Therapeutics Program. […] The stock solutions were prepared in dimethyl sulfoxide (DMSO, Sigma-Aldrich, St. Louis, MO, cat. D2650) at 800-fold the tested concentration and stored at -70 degrees C prior to their use. All drugs and investigational agents were tested over a range starting from a high concentration at or near the clinical Cmax and decreasing in half-log increments. If the clinical Cmax for an agent had not been determined, the highest concentration tested was 10 microM.
Cell Culture. All cells were maintained in an incubator at 37 degrees C and 5% CO2 with 95% humidity. The PDC lines were cultured according to standard operating procedures established by the NCI PDMR (https://pdmr.cancer.gov/sops/default.htm). All PDCs were thawed and cultured in Matrigel-coated flasks prepared with a working solution of 1X Ham's F-12 nutrient mix, without supplementation (Invitrogen, Waltham, MA, cat. 11765054), 100 U/mL penicillin-streptomycin (Invitrogen, cat. 15140122), and 2.5% Matrigel (Corning Inc., Corning, NY, cat. 354248) for the first three passages. The 354836-022-R-J1-PDC, 475296-252-R-J1-PDC, and 997726-040-R-J2-PDC lines were cultured in 6A media, which includes advanced DMEM/F-12 (Thermo Fisher Scientific, cat. 12634028), 10 mM HEPES (Thermo Fisher Scientific, cat. 15630080), 1X GlutaMAX supplement (Thermo Fisher Scientific, cat. 35050061), 0.1 mg/mL primocin (InvivoGen, San Diego, CA, cat. ant-pm-2), 10% defined fetal bovine serum, heat inactivated (HyClone Laboratories Inc., Logan, UT, cat. SH30070.03HI), 50% L-WRN conditioned media (ATCC, cat. CRL-3276), 1.25 mM N-Acetyl-L-cysteine (Sigma-Aldrich, cat. A9165), 10 mM nicotinamide (Sigma-Aldrich, cat. N0636), 1X B-27 supplement (Thermo Fisher Scientific, cat. 17504044), 1X N-2 supplement (Thermo Fisher Scientific, cat. 17502048), and 10 microM Y-27632 dihydrochloride (Tocris Bioscience, Bristol, United Kingdom, cat. 1254). The 624824-186-R-J2-PDC line was cultured in 6C/Colon 1B media, which includes all 6A media components plus 50 ng/mL human EGF recombinant protein (Thermo Fisher Scientific, cat. PHG0311). […]

[1] = second compound 0.0316 µM, first compound 0.0316 µM
[2] = second compound 0.0316 µM, first compound 0.1 µM
[3] = second compound 0.1 µM, first compound 0.0316 µM
[4] = second compound 0.1 µM, first compound 0.1 µM
[5] = second compound 0.316 µM, first compound 0.0316 µM
[6] = second compound 0.316 µM, first compound 0.1 µM
[7] = second compound 1 µM, first compound 0.0316 µM
[8] = second compound 1 µM, first compound 0.1 µM
[9] = second compound 3.16 µM, first compound 0.0316 µM
[10] = second compound 3.16 µM, first compound 0.1 µM
[11] = second compound 10 µM, first compound 0.0316 µM
[12] = second compound 10 µM, first compound 0.1 µM
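Note: spheroids exposed to agents for seven days before readout.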

IC50 (second compound 0.0316 µM): > 0.1 µM | IC50 (second compound 0.1 µM): > 0.1 µM | IC50 (second compound 0.316 µM): > 0.1 µM | IC50 (second compound 1 µM): > 0.1 µM | IC50 (second compound 3.16 µM): > 0.1 µM | IC50 (second compound 10 µM): > 0.1 µM
Structure (SMILES): CC(=O)c1c(C)c2cnc(Nc3ccc(N4CCNCC4)cn3)nc2n(C2CCCC2)c1=O + CC(Nc1ncnc2nc[nH]c12)c1cc2cccc(Cl)c2c(=O)n1-c1ccccc1
viability, T/C (second compound 0.0316 µM, first compound 0.000316 µM): 98.3% | viability, T/C (second compound 0.0316 µM, first compound 0.001 µM): 103% | viability, T/C (second compound 0.0316 µM, first compound 0.00316 µM): 97.5% | viability, T/C (second compound 0.0316 µM, first compound 0.01 µM): 97.2% | viability, T/C [1]: 102% | viability, T/C [2]: 93.2% | viability, T/C (second compound 0.1 µM, first compound 0.000316 µM): 103% | viability, T/C (second compound 0.1 µM, first compound 0.001 µM): 103% | viability, T/C (second compound 0.1 µM, first compound 0.00316 µM): 98.4% | viability, T/C (second compound 0.1 µM, first compound 0.01 µM): 104% | viability, T/C [3]: 99.5% | viability, T/C [4]: 98.4% | viability, T/C (second compound 0.316 µM, first compound 0.000316 µM): 108% | viability, T/C (second compound 0.316 µM, first compound 0.001 µM): 97.7% | viability, T/C (second compound 0.316 µM, first compound 0.00316 µM): 105% | viability, T/C (second compound 0.316 µM, first compound 0.01 µM): 97.9% | viability, T/C [5]: 103% | viability, T/C [6]: 97.5% | viability, T/C (second compound 1 µM, first compound 0.000316 µM): 101% | viability, T/C (second compound 1 µM, first compound 0.001 µM): 100% | viability, T/C (second compound 1 µM, first compound 0.00316 µM): 101% | viability, T/C (second compound 1 µM, first compound 0.01 µM): 105% | viability, T/C [7]: 108% | viability, T/C [8]: 89% | viability, T/C (second compound 3.16 µM, first compound 0.000316 µM): 96.2% | viability, T/C (second compound 3.16 µM, first compound 0.001 µM): 100% | viability, T/C (second compound 3.16 µM, first compound 0.00316 µM): 97.2% | viability, T/C (second compound 3.16 µM, first compound 0.01 µM): 93.7% | viability, T/C [9]: 100% | viability, T/C [10]: 81.3% | viability, T/C (second compound 10 µM, first compound 0.000316 µM): 92.7% | viability, T/C (second compound 10 µM, first compound 0.001 µM): 107% | viability, T/C (second compound 10 µM, first compound 0.00316 µM): 96.5% | viability, T/C (second compound 10 µM, first compound 0.01 µM): 94.1% | viability, T/C [11]: 101% | viability, T/C [12]: 80.5%

IC50 (second compound 0.0316 µM): 3.51 µM | IC50 (second compound 0.1 µM): 3.26 µM | IC50 (second compound 0.316 µM): 2.91 µM | IC50 (second compound 1 µM): 4.19 µM | IC50 (second compound 3.16 µM): 2.99 µM | IC50 (second compound 10 µM): 3.19 µM
Structure (SMILES): CC(C)NCC(C(=O)N1CCN(c2ncnc3c2C(C)CC3O)CC1)c1ccc(Cl)cc1 (centres undefined) + CC(Nc1ncnc2nc[nH]c12)c1cc2cccc(Cl)c2c(=O)n1-c1ccccc1
viability, T/C [1]: 99.7% | viability, T/C [2]: 97.3% | viability, T/C (second compound 0.0316 µM, first compound 0.316 µM): 99% | viability, T/C (second compound 0.0316 µM, first compound 1 µM): 78% | viability, T/C (second compound 0.0316 µM, first compound 3.16 µM): 52.6% | viability, T/C (second compound 0.0316 µM, first compound 10 µM): 34.3% | viability, T/C [3]: 104% | viability, T/C [4]: 99.3% | viability, T/C (second compound 0.1 µM, first compound 0.316 µM): 99.8% | viability, T/C (second compound 0.1 µM, first compound 1 µM): 81.3% | viability, T/C (second compound 0.1 µM, first compound 3.16 µM): 50.8% | viability, T/C (second compound 0.1 µM, first compound 10 µM): 31.7% | viability, T/C [5]: 101% | viability, T/C [6]: 104% | viability, T/C (second compound 0.316 µM, first compound 0.316 µM): 94% | viability, T/C (second compound 0.316 µM, first compound 1 µM): 79.1% | viability, T/C (second compound 0.316 µM, first compound 3.16 µM): 47.4% | viability, T/C (second compound 0.316 µM, first compound 10 µM): 29.8% | viability, T/C [7]: 106% | viability, T/C [8]: 104% | viability, T/C (second compound 1 µM, first compound 0.316 µM): 95% | viability, T/C (second compound 1 µM, first compound 1 µM): 86.1% | viability, T/C (second compound 1 µM, first compound 3.16 µM): 54.8% | viability, T/C (second compound 1 µM, first compound 10 µM): 31.9% | viability, T/C [9]: 105% | viability, T/C [10]: 107% | viability, T/C (second compound 3.16 µM, first compound 0.316 µM): 98.3% | viability, T/C (second compound 3.16 µM, first compound 1 µM): 79.6% | viability, T/C (second compound 3.16 µM, first compound 3.16 µM): 48.6% | viability, T/C (second compound 3.16 µM, first compound 10 µM): 26.8% | viability, T/C [11]: 106% | viability, T/C [12]: 93.9% | viability, T/C (second compound 10 µM, first compound 0.316 µM): 102% | viability, T/C (second compound 10 µM, first compound 1 µM): 76.7% | viability, T/C (second compound 10 µM, first compound 3.16 µM): 51.5% | viability, T/C (second compound 10 µM, first compound 10 µM): 26.7%
